Laboratory results taken from patent publication US20080125663A1, “Pre-And Intra-Operative Imaging of Testicular Torsion” (University of Rochester Medical Center, priority 2006, published 2008).
Entries after “also recorded” stand apart in the source; their conditions may differ.

Key:
mammals = details: cited from earlier work; for neuronal toxicity: used in mammals
testes of a rat = assay: Near IR fluorescence imaging of testicular perfusion after unilateral interruption of blood flow to the right testis; type: in vivo
Experimental: Intraoperative video angiography is performed with a laser-fluorescence imaging device (Novadaq Technologies, Inc., Toronto, Canada) consisting of a near infrared (NIR) laser light source and a NIR-sensitive digital camcorder. For measurements, the unit is positioned 30 to 40 cm from the area of interest. ICG, dissolved in water, is then injected as a bolus. When ICG is used as the imaging dye, NIR light emitted by the laser light source induces ICG fluorescence. The fluorescence is typically imaged by a video camera, with optical filtering to block ambient and laser light so that only ICG fluorescence is captured. […] Two rats were subjected to unilateral interruption of blood flow to the right testis. In rat A, a bulldog clamp was used, in rat B, a mosquito clamp (a smaller clamp designed to cut off blood flow in small blood vessels) was used. ICG was administered by IV to each rat to determine the ability to visualize the degree to which the testicle underwent hypoperfusion or lack of perfusion. Prior to administration of ICG, rat A was first subjected to near IR and imaged. […] 0.5 ml of ICG at a concentration of 2.5 mg/ml was then administered by IV. The right spermatic cord was clamped with a bulldog clamp to create vascular obstruction and the testicles were imaged.

[1] = cited from earlier work
[2] = bulldog clamp, 0.5 ml of 2.5 mg/ml ICG IV, imaged through the scrotum

| Compound | neuronal toxicity (mammals) | fluorescence of the right testicle after removal of the clamp (reperfusion) (testes of a rat; bulldog clamp removed from the spermatic cord) | fluorescence of the right testicle during clamp obstruction of the right spermatic cord (testes of a rat; bulldog clamp, 0.5 ml of 2.5 mg/ml ICG IV, exposed testes) | fluorescence of the left hemiscrotum (unclamped side) (testes of a rat; [2]) | fluorescence of the right hemiscrotum (clamped side) (testes of a rat; [2]) | differential perfusion seen after occlusion (testes of a rat; mosquito (vascular) clamp, ICG IV) | toxicity (mammals; in vivo) | distribution ([1]; after intravenous injection, with normal vascular permeability) | time to binding, mainly to globulins (1-lipoproteins) ([1]; after intravenous injection) [s] | enterohepatic recirculation ([1]; in vivo) | excretion ([1]; in vivo) | metabolism in the body ([1]; in vivo) | reabsorption from the intestine ([1]; in vivo) |
| --- | --- | --- | --- | --- | --- | --- | --- | --- | --- | --- | --- | --- | --- |
| Fast Blue | low evidence of neuronal toxicity |  |  |  |  |  |  |  |  |  |  |  |  |
| CC1(C)C(/C=C/C=C/C=C/C=C2\N(CCCCS(=O)(=O)O)c3ccc4ccccc4c3C2(C)C)=[N+](CCCCS(=O)(=O)[O-])c2ccc3ccccc3c21 [ICG, indocyanine green] | low evidence of neuronal toxicity | restoration of fluorescence; also recorded: Fluoresence of the right testicle was observed | absence of fluorescence | intense fluorescence | low fluorescence | obvious differential perfusion | low toxicity | remains intravascular | 1 to 2 | does not undergo enterohepatic recirculation | excreted exclusively by the liver | not metabolized | not reabsorbed from the intestine |
| N=C(N)c1ccc(/C=C/c2ccc(C(=N)N)cc2O)cc1 [Fluorogold] | low evidence of neuronal toxicity |  |  |  |  |  |  |  |  |  |  |  |  |
